*1 amine or outer side, *2 acyl side, *3 side chain or, on linkers, in order; H or OH if unused. Where a SMILES comes first, the peptide text is derived from it. Bridges are numbered along the chain shown (N, C = ends). [ ]: non-standard residue; d: D form. X9 = O=C(NCCOCCOCCOCCNC(=O)OCC1C2CCc3nnn(CC(=O)N4CCCC[C@H]4C4(O)CN(C(=O)c5ccc(F)c(F)c5Nc5ccc(I)cc5F)C4)c3CCC21)OCC1C2CCc3c([*:1])nnc([*:2])c3CCC21; X8 = NCCNC(=O)OCC1C2CCc3c([*:1])nnc([*:2])c3CCC21; mXylylene = c1cc(C[*:1])cc(C[*:2])c1; oXylylene = c1ccc(C[*:2])c(C[*:1])c1; pXylylene = c1cc(C[*:2])ccc1C[*:1]; Nle = CCCC[C@H](N)C(=O)O
Tests used:
[1] = biological target: T1, Melanocyte-stimulating hormone receptor (Homo sapiens, UniProt Q01726); test: Displacement of [125I]-NDP-alpha-MSH from human MC1R expressed in HEK2936E cell membrane measured after 16 to 23 hrs by 1450 microbeta trilux scintillation proximity assay; format: cell membranes
T1 sequence (Q01726 whole entry): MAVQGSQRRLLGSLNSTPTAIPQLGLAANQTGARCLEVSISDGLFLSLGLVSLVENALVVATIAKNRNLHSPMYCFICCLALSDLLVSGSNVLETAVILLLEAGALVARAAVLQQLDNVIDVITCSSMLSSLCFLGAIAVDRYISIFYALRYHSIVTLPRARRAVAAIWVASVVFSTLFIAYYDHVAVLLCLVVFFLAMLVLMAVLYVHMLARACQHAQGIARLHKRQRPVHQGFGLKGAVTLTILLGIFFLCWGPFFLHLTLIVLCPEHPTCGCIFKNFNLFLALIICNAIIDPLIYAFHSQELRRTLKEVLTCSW

Melanocortin receptor 3 [2] = biological target: T2, Melanocortin receptor 3 (Homo sapiens, UniProt P41968); test: Displacement of [125I]-NDP-alpha-MSH from human MC3R expressed in HEK2936E cell membrane measured after 16 to 23 hrs by 1450 microbeta trilux scintillation proximity assay; format: cell membranes
T2 sequence (P41968 whole entry): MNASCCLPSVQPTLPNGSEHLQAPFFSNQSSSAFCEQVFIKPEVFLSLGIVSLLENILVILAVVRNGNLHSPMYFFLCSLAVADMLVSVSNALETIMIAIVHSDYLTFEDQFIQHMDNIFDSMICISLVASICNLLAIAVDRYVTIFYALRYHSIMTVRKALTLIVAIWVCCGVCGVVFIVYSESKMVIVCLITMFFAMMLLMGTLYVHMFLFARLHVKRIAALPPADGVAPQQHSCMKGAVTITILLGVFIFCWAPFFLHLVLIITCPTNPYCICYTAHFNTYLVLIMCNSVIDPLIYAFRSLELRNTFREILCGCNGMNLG

Melanocortin receptor 4 = Melanocortin receptor 4 (Homo sapiens, UniProt P32245); test: Displacement of [125I]-NDP-alpha-MSH from human MC4R expressed in HEK2936E cell membrane measured after 16 to 23 hrs by 1450 microbeta trilux scintillation proximity assay; format: cell membranes
Melanocortin receptor 4, sequence (P32245 whole entry): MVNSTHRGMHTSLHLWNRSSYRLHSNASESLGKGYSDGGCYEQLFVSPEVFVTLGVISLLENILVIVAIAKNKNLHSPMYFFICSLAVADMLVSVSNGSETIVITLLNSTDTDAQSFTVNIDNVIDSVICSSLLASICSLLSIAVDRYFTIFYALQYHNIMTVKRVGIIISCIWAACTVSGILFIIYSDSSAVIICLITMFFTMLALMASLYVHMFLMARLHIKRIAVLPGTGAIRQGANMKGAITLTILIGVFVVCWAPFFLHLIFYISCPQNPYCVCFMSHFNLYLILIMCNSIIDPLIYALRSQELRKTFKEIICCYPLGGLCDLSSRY

Homo sapiens [3] = organism: Homo sapiens; test: Selectivity ratio of Ki for human MC3R to Ki for human MC1R
Homo sapiens [4] = organism: Homo sapiens; test: Selectivity ratio of Ki for human MC4R to Ki for human MC1R
[5] = biological target: T1, Melanocyte-stimulating hormone receptor; test: Agonist activity at human MC1R expressed in HEK2936E cells assessed as cAMP production in presence of IBMX by time resolved fluorescence assay; format: functional, cell-based; details: read-out: pEC50 (converted)
Melanocortin receptor 3 [6] = biological target: T2, Melanocortin receptor 3; test: Agonist activity at human MC3R expressed in HEK2936E cells assessed as cAMP production in presence of IBMX by time resolved fluorescence assay; format: functional, cell-based

CCCC[C@@H]1NC(=O)[C@@H]2CSc3nnc(c4c3CCC3C(CC4)C3COC(=O)NCCNC(=O)CCOCCOCCOCCOCCOCCC(=O)NCCNC(=O)OCC3C4CCc5c6nnc(c5CCC43)SC[C@@H]3NC(=O)[C@H](CCCNC(=N)N)NC(=O)[C@H](CC(=O)O)NC(=O)[C@H](Cc4c[nH]c5ccccc45)NC(=O)[C@H](CCCNC(=N)N)NC(=O)[C@H](Cc4ccccc4)NC(=O)[C@H](Cc4cnc[nH]4)NC(=O)CNC(=O)[C@H](CCCC)NC(=O)[C@H](CS6)NC(=O)[C@H](CCCNC(=N)N)NC(=O)[C@H](Cc4c[nH]c5ccccc45)NC(=O)[C@H](CCCNC(=N)N)NC(=O)[C@H](Cc4ccccc4)NC(=O)[C@H](Cc4cnc[nH]4)NC3=O)SC[C@H](NC(=O)[C@H](CCCNC(=N)N)NC(=O)[C@H](CC(=O)O)NC(=O)[C@H](Cc3c[nH]c4ccccc34)NC(=O)[C@H](CCCNC(=N)N)NC(=O)[C@H](Cc3ccccc3)NC(=O)[C@H](Cc3cnc[nH]3)NC(=O)CNC1=O)C(=O)N[C@@H](Cc1cnc[nH]1)C(=O)N[C@@H](Cc1ccccc1)C(=O)N[C@@H](CCCNC(=N)N)C(=O)N[C@@H](Cc1c[nH]c3ccccc13)C(=O)N[C@@H](CCCNC(=N)N)C(=O)N2 (some centres not stated)
Ki [1]: 0.661 nM | Ki (Melanocortin receptor 3 [2]): 11.5 nM | Ki (Melanocortin receptor 4): 30.9 nM | Ratio Ki (Homo sapiens [3]): 17 | Ratio Ki (Homo sapiens [4]): 47

CCCC[C@@H]1NC(=O)[C@@H]2CSc3nnc(c4c3CCC3C(CC4)C3COC(=O)NCCOCCOCCOCCNC(=O)OCC3C4CCc5c6nnc(c5CCC43)SC[C@@H]3NC(=O)[C@H](CCCNC(=N)N)NC(=O)[C@H](CC(=O)O)NC(=O)[C@H](Cc4c[nH]c5ccccc45)NC(=O)[C@H](CCCNC(=N)N)NC(=O)[C@H](Cc4ccccc4)NC(=O)[C@H](Cc4cnc[nH]4)NC(=O)CNC(=O)[C@H](CCCC)NC(=O)[C@H](CS6)NC(=O)[C@H](CCCNC(=N)N)NC(=O)[C@H](Cc4c[nH]c5ccccc45)NC(=O)[C@H](CCCNC(=N)N)NC(=O)[C@H](Cc4ccccc4)NC(=O)[C@H](Cc4cnc[nH]4)NC3=O)SC[C@H](NC(=O)[C@H](CCCNC(=N)N)NC(=O)[C@H](CC(=O)O)NC(=O)[C@H](Cc3c[nH]c4ccccc34)NC(=O)[C@H](CCCNC(=N)N)NC(=O)[C@H](Cc3ccccc3)NC(=O)[C@H](Cc3cnc[nH]3)NC(=O)CNC1=O)C(=O)N[C@@H](Cc1cnc[nH]1)C(=O)N[C@@H](Cc1ccccc1)C(=O)N[C@@H](CCCNC(=N)N)C(=O)N[C@@H](Cc1c[nH]c3ccccc13)C(=O)N[C@@H](CCCNC(=N)N)C(=O)N2 (some centres not stated)
Ki [1]: 2.24 nM | Ki (Melanocortin receptor 3 [2]): 37.2 nM | Ki (Melanocortin receptor 4): 91.2 nM | Ratio Ki (Homo sapiens [3]): 17 | Ratio Ki (Homo sapiens [4]): 41

CCCC[C@@H]1NC(=O)[C@@H]2CSc3nnc(c4c3CCC3C(CC4)C3COC(=O)NCCOCCOCCOCCNC(=O)OCC3C4CCc5nnn(CC(=O)N6CCCC[C@H]6C6(O)CN(C(=O)c7ccc(F)c(F)c7Nc7ccc(I)cc7F)C6)c5CCC43)SC[C@H](NC(=O)[C@H](CCCNC(=N)N)NC(=O)[C@H](CC(=O)O)NC(=O)[C@H](Cc3c[nH]c4ccccc34)NC(=O)[C@H](CCCNC(=N)N)NC(=O)[C@H](Cc3ccccc3)NC(=O)[C@H](Cc3cnc[nH]3)NC(=O)CNC1=O)C(=O)N[C@@H](Cc1cnc[nH]1)C(=O)N[C@@H](Cc1ccccc1)C(=O)N[C@@H](CCCNC(=N)N)C(=O)N[C@@H](Cc1c[nH]c3ccccc13)C(=O)N[C@@H](CCCNC(=N)N)C(=O)N2 (some centres not stated) (cyclo(CHFRWRC[Nle]GHFRWDR); linker 1-7 via X9)
Ki [1]: 2.14 nM | Ki (Melanocortin receptor 3 [2]): 51.3 nM | Ki (Melanocortin receptor 4): 170 nM | Ratio Ki (Homo sapiens [3]): 24 | Ratio Ki (Homo sapiens [4]): 79

CCCC[C@@H]1NC(=O)[C@@H]2CSCc3ccccc3CSC[C@H](NC(=O)[C@H](CCCNC(=N)N)NC(=O)[C@H](CC(=O)O)NC(=O)[C@H](Cc3c[nH]c4ccccc34)NC(=O)[C@H](CCCNC(=N)N)NC(=O)[C@H](Cc3ccccc3)NC(=O)[C@H](Cc3cnc[nH]3)NC(=O)CNC1=O)C(=O)N[C@@H](Cc1cnc[nH]1)C(=O)N[C@@H](Cc1ccccc1)C(=O)N[C@@H](CCCNC(=N)N)C(=O)N[C@@H](Cc1c[nH]c3ccccc13)C(=O)N[C@@H](CCCNC(=N)N)C(=O)N2 (cyclo(CHFRWRC[Nle]GHFRWDR); linker 1-7 via oXylylene)
Ki [1]: 1.58 nM | Ki (Melanocortin receptor 3 [2]): 26.3 nM | EC50 [5]: 0.195 nM | EC50 (Melanocortin receptor 3 [6]): 0.347 nM

CCCC[C@@H]1NC(=O)[C@@H]2CSCc3ccc(cc3)CSC[C@H](NC(=O)[C@H](CCCNC(=N)N)NC(=O)[C@H](CC(=O)O)NC(=O)[C@H](Cc3c[nH]c4ccccc34)NC(=O)[C@H](CCCNC(=N)N)NC(=O)[C@H](Cc3ccccc3)NC(=O)[C@H](Cc3cnc[nH]3)NC(=O)CNC1=O)C(=O)N[C@@H](Cc1cnc[nH]1)C(=O)N[C@@H](Cc1ccccc1)C(=O)N[C@@H](CCCNC(=N)N)C(=O)N[C@@H](Cc1c[nH]c3ccccc13)C(=O)N[C@@H](CCCNC(=N)N)C(=O)N2 (cyclo(CHFRWRC[Nle]GHFRWDR); linker 1-7 via pXylylene)
Ki [1]: 0.245 nM | Ki (Melanocortin receptor 3 [2]): 13.8 nM | EC50 [5]: 0.0891 nM | EC50 (Melanocortin receptor 3 [6]): 0.331 nM

CCCC[C@@H]1NC(=O)[C@@H]2CSc3nnc(c4c3CCC3C(CC4)C3COC(=O)NCCN)SC[C@H](NC(=O)[C@H](CCCNC(=N)N)NC(=O)[C@H](CC(=O)O)NC(=O)[C@H](Cc3c[nH]c4ccccc34)NC(=O)[C@H](CCCNC(=N)N)NC(=O)[C@H](Cc3ccccc3)NC(=O)[C@H](Cc3cnc[nH]3)NC(=O)CNC1=O)C(=O)N[C@@H](Cc1cnc[nH]1)C(=O)N[C@@H](Cc1ccccc1)C(=O)N[C@@H](CCCNC(=N)N)C(=O)N[C@@H](Cc1c[nH]c3ccccc13)C(=O)N[C@@H](CCCNC(=N)N)C(=O)N2 (some centres not stated) (cyclo(CHFRWRC[Nle]GHFRWDR); linker 1-7 via X8)
Ki [1]: < 0.0055 nM | Ki (Melanocortin receptor 3 [2]): 0.631 nM | Ki (Melanocortin receptor 4): 0.912 nM | Ratio Ki (Homo sapiens [3]): 115 | Ratio Ki (Homo sapiens [4]): 166

CCCC[C@@H]1NC(=O)[C@@H]2CSc3nnc(c4c3CCC3C(CC4)C3COC(=O)NCCOCCOCCNC(=O)CCOCCOCCOCCOCCOCCC(=O)NCCOCCOCCNC(=O)OCC3C4CCc5c6nnc(c5CCC43)SC[C@@H]3NC(=O)[C@H](CCCNC(=N)N)NC(=O)[C@H](CC(=O)O)NC(=O)[C@H](Cc4c[nH]c5ccccc45)NC(=O)[C@H](CCCNC(=N)N)NC(=O)[C@H](Cc4ccccc4)NC(=O)[C@H](Cc4cnc[nH]4)NC(=O)CNC(=O)[C@H](CCCC)NC(=O)[C@H](CS6)NC(=O)[C@H](CCCNC(=N)N)NC(=O)[C@H](Cc4c[nH]c5ccccc45)NC(=O)[C@H](CCCNC(=N)N)NC(=O)[C@H](Cc4ccccc4)NC(=O)[C@H](Cc4cnc[nH]4)NC3=O)SC[C@H](NC(=O)[C@H](CCCNC(=N)N)NC(=O)[C@H](CC(=O)O)NC(=O)[C@H](Cc3c[nH]c4ccccc34)NC(=O)[C@H](CCCNC(=N)N)NC(=O)[C@H](Cc3ccccc3)NC(=O)[C@H](Cc3cnc[nH]3)NC(=O)CNC1=O)C(=O)N[C@@H](Cc1cnc[nH]1)C(=O)N[C@@H](Cc1ccccc1)C(=O)N[C@@H](CCCNC(=N)N)C(=O)N[C@@H](Cc1c[nH]c3ccccc13)C(=O)N[C@@H](CCCNC(=N)N)C(=O)N2 (some centres not stated)
Ki [1]: 0.417 nM | Ki (Melanocortin receptor 3 [2]): 10.2 nM | Ki (Melanocortin receptor 4): 33.1 nM | Ratio Ki (Homo sapiens [3]): 25 | Ratio Ki (Homo sapiens [4]): 79

CCCC[C@@H]1NC(=O)[C@@H]2CSCc3cccc(c3)CSC[C@H](NC(=O)[C@H](CCCNC(=N)N)NC(=O)[C@H](CC(=O)O)NC(=O)[C@H](Cc3c[nH]c4ccccc34)NC(=O)[C@H](CCCNC(=N)N)NC(=O)[C@H](Cc3ccccc3)NC(=O)[C@H](Cc3cnc[nH]3)NC(=O)CNC1=O)C(=O)N[C@@H](Cc1cnc[nH]1)C(=O)N[C@@H](Cc1ccccc1)C(=O)N[C@@H](CCCNC(=N)N)C(=O)N[C@@H](Cc1c[nH]c3ccccc13)C(=O)N[C@@H](CCCNC(=N)N)C(=O)N2 (cyclo(CHFRWRC[Nle]GHFRWDR); linker 1-7 via mXylylene)
Ki [1]: 0.407 nM | Ki (Melanocortin receptor 3 [2]): 13.5 nM | EC50 [5]: 0.0871 nM | EC50 (Melanocortin receptor 3 [6]): 0.309 nM
